This passage reports EC50 results from patent US20250002471A1 (Gilead Sciences, Inc., priority 2020, published 2025).

One assay has as its target T1, TLR7 (Homo sapiens, UniProt Q9NYK1).
T1 construct: lymphocytes, monocytes and dendritic cells that express TLR7, TLR8 and TLR9; endogenous in cells; host or cells: human PBMCs from healthy donors
T1 sequence (Q9NYK1 27-1049): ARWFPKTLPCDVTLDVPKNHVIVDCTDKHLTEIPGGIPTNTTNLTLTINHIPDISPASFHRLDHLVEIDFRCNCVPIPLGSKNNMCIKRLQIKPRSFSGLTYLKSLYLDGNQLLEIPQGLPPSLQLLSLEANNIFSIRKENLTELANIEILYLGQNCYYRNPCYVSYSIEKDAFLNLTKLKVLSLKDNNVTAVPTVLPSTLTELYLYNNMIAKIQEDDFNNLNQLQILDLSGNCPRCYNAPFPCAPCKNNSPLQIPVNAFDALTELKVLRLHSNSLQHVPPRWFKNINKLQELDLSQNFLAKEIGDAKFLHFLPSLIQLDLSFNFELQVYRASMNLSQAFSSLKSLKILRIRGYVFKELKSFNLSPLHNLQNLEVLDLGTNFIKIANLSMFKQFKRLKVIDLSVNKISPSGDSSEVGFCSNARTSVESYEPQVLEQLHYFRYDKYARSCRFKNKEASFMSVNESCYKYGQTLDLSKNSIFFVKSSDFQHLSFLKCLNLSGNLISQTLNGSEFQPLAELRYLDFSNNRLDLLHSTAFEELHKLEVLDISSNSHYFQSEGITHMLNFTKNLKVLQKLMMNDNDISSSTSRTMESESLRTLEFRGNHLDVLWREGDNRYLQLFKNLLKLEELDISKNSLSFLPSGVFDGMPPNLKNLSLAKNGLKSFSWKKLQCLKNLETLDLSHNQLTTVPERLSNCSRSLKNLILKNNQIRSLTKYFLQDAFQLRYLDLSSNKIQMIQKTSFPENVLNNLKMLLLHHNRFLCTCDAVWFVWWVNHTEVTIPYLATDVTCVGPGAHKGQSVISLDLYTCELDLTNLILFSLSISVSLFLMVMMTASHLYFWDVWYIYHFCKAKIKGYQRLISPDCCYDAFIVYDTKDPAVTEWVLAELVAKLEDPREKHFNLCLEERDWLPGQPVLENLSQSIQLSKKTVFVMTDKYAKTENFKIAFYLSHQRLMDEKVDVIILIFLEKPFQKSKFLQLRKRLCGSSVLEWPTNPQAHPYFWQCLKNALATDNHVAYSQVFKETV
Kind of assay: Human PBMC cell-based assay, TLR7 agonist GS-986 stimulation, cytokine (IL-6 and IFNα) readout. As to conditions: human PBMCs, GS-986 400 nM, 6 hours; Table 26; read-out: TLR-7 EC50. The procedure, abridged: (§1)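 Readout is IL-6 and IFNα in supernatants, quantified by electrochemiluminescence, with EC50 from a sigmoidal fit of cytokine versus concentration. Healthy-donor human PBMCs, 100,000 per well, got antagonist for 1 h at 37 °C, then 6 h agonist exposure: TLR7 via GS-986 at 400 nM final, TLR9 via ODN-2216 at 3 μM final.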

In the next assay the target is T2, TLR9 (Homo sapiens, UniProt Q9NR96).
T2 construct: lymphocytes, monocytes and dendritic cells that express TLR7, TLR8 and TLR9; endogenous in cells; host or cells: human PBMCs from healthy donors
T2 sequence (Q9NR96 26-1032): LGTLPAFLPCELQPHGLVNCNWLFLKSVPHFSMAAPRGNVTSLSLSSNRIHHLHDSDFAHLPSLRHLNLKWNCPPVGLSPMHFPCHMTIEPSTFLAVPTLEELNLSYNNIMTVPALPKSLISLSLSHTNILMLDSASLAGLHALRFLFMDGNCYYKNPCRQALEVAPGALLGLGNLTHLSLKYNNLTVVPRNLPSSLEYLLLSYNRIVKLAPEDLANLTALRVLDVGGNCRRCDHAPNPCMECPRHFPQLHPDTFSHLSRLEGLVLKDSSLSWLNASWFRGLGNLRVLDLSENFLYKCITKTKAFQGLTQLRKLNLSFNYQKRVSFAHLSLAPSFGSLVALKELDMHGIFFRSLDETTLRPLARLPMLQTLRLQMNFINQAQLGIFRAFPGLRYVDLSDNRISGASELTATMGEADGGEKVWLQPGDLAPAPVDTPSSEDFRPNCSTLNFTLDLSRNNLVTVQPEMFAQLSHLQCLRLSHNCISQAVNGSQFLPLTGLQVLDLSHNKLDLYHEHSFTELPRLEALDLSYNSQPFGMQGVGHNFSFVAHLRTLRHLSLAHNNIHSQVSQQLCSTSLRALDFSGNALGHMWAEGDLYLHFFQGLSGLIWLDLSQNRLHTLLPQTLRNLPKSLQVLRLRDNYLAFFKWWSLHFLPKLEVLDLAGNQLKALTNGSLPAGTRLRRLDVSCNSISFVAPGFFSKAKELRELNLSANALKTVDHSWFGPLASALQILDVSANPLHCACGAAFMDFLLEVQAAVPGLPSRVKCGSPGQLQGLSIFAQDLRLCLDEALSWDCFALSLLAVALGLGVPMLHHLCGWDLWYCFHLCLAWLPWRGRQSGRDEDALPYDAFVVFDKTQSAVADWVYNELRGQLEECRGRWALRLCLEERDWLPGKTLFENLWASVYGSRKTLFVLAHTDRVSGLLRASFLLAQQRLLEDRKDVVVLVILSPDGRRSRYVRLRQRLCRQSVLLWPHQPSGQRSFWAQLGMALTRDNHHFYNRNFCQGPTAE
Kind of assay: Human PBMC cell-based assay, TLR9 agonist ODN-2216 stimulation, cytokine (IL-6 and IFNα) readout. As to conditions: human PBMCs, ODN-2216 3 μM, 6 hours; Table 26; read-out: TLR-9 EC50. The method, boiled down:
as §1

What is called EC50 is the concentration giving half of the maximal effect. In the case of `COc1cc(-c2[nH]c3cc(-c4ccc(N5CCNCC5)nc4)ccc3c2C)cc(C)n1` [Example 79], the EC50 was found to be 10.9 nM on TLR7 and 994 nM at TLR9.

With `COc1ccc(-c2[nH]c3cc(-c4ccc(N5CCNCC5)nc4)ccc3c2C)cc1OC` [Example 81], the EC50 came out at 34.4 nM on TLR7 and 758 nM at TLR9.

Regarding `Cc1ncc(-c2[nH]c3cc(-c4ccc(N5CCNCC5)nc4)ccc3c2C)cn1` [Example 82], the EC50 at TLR7 turned out to be 503 nM; on TLR9, 489 nM.

For the compound `Cc1c(-c2cnc(C(F)(F)F)nc2)[nH]c2cc(-c3ccc(N4CCNCC4)nc3)ccc12` [Example 83], the EC50 turned out to be 778 nM on TLR7 and 756 nM at TLR9.

For `Cc1cncc(-c2[nH]c3cc(-c4ccc(N5CCNCC5)nc4)ccc3c2C)c1` [Example 84], the EC50 on TLR7 is 1990 nM; on TLR9, 964 nM.

For `Cc1cncc(-c2[nH]c3cc(-c4ccc(N5CCNCC5)nc4)ccc3c2C)c1C` [Example 86], the EC50 came to 2670 nM on TLR7 and 1430 nM at TLR9.

As for `Cc1c(-c2cnn(C)c2)[nH]c2cc(-c3ccc(N4CCNCC4)nc3)ccc12` [Example 87], the EC50 is 2180 nM on TLR7 and 583 nM at TLR9.

`Cc1nn(C)cc1-c1[nH]c2cc(-c3ccc(N4CCNCC4)nc3)ccc2c1C` [Example 88]: the EC50 at TLR7 came to 317 nM; at TLR9, 2190 nM.

On to `Cc1c(-c2cnn3c2CCC3)[nH]c2cc(-c3ccc(N4CCNCC4)nc3)ccc12` [Example 89], for which the EC50 was above 1000 nM at TLR7 and 428 nM on TLR9.

On to `Cc1cc(-c2[nH]c3cc(-c4ccc(N5CCNCC5)nc4)ccc3c2C)c2ccccc2n1` [Example 90], for which the EC50 at TLR7 was found to be 29.8 nM; on TLR9, 753 nM.

`Cc1c(-c2cn(C)c(=O)n(C)c2=O)[nH]c2cc(-c3ccc(N4CCNCC4)nc3)ccc12` [Example 91]: the EC50 came to 104 nM on TLR7 and 540 nM on TLR9.

For the compound `Cc1c(-c2cn(C)c(=O)c3ccccc23)[nH]c2cc(-c3ccc(N4CCNCC4)nc3)ccc12` [Example 92], the EC50 was found to be 664 nM on TLR7 and 1680 nM on TLR9.

As for `Cc1c(-c2cc(C#N)c(=O)n(C)c2)[nH]c2cc(-c3ccc(N4CCNCC4)nc3)ccc12` [Example 93], the values for the EC50 at TLR7 and at TLR9 were 205 nM and 909 nM, respectively.

On to `Cc1cc(-c2[nH]c3cc(-c4ccc(N5CCNCC5)nc4)ccc3c2C)cn(C)c1=O` [Example 94, 1,3-dimethyl-5-(3-methyl-6-(6-(piperazin-1-yl)pyridin-3-yl)-1H-indol-2-yl)pyridin-2(1H)-one], for which the EC50 came to 4.5 nM at TLR7 and 139 nM at TLR9.

In the case of `Cc1c(-c2ccc(=O)n(C)c2)[nH]c2cc(-c3ccc(N4CCNCC4)nc3)ccc12` [Example 95, 1-methyl-5-(3-methyl-6-(6-(piperazin-1-yl)pyridin-3-yl)-1H-indol-2-yl)pyridin-2(1H)-one], the EC50 was determined as 102 nM on TLR7 and 288 nM at TLR9.

Consider `Cc1cc(-c2[nH]c3cc(-c4ccc(N5CCNCC5)nc4)ccc3c2C)nc(C)n1` [Example 96], for which the EC50 at TLR7 was 144 nM; on TLR9, 609 nM.

As for `Cc1c(-c2ccc(C#N)c3ncccc23)[nH]c2cc(-c3ccc(N4CCNCC4)nc3)ccc12` [Example 97], the 50% effective concentration (EC50) on TLR7 was found to be 2.6 nM; on TLR9, 733 nM.

For the compound `Cc1cncc(-c2[nH]c3cc(-c4ccc(N5CCNCC5)nc4)ccc3c2C)n1` [Example 98], the EC50 at TLR7 was 1130 nM; at TLR9, 1520 nM.

Turning to `Cc1cc(-c2[nH]c3cc(-c4ccc(N5CCNCC5)nc4)ccc3c2C)c2cccnc2n1` [Example 99], the EC50 at TLR7 is 1.8 nM; at TLR9, 548 nM.

On to `Cc1cc(-c2[nH]c3cc(C#CC4CCNCC4)ccc3c2C)cc(C)n1` [Example 100, 2-(2,6-dimethylpyridin-4-yl)-3-methyl-6-(piperidin-4-ylethynyl)-1H-indole], for which the EC50 on TLR7 amounted to 437 nM; at TLR9 it was 101 nM.

For the compound `Cc1cc(-c2[nH]c3cc(-c4ccc(N5CCNCC5)nc4)ccc3c2C#N)cc(C)n1` [Example 101, 2-(2,6-dimethylpyridin-4-yl)-6-(6-(piperazin-1-yl)pyridin-3-yl)-1H-indole-3-carbonitrile], the results for the EC50 at TLR7 and at TLR9 were 1720 nM and 316 nM, respectively.

For `CC(=O)c1c(-c2cc(C)nc(C)c2)[nH]c2cc(-c3ccc(N4CCNCC4)nc3)ccc12` [Example 102, 1-(2-(2,6-dimethylpyridin-4-yl)-6-(6-(piperazin-1-yl)pyridin-3-yl)-1H-indol-3-yl)ethan-1-one], the EC50 at TLR7 amounted to 1730 nM; on TLR9, 217 nM.

With `Cc1cc(-c2[nH]c3cc(-c4ccc(N5CCCNCC5)nc4)ccc3c2C)cc(C)n1` [Example 103, 6-(6-(1,4-diazepan-1-yl)pyridin-3-yl)-2-(2,6-dimethylpyridin-4-yl)-3-methyl-1H-indole], the EC50 on TLR7 was 35.1 nM; at TLR9, 45.7 nM.

For `Cc1cc(-c2[nH]c3cc(-c4ccc(N5CCC(N)CC5)nc4)ccc3c2C2CC2)cc(C)n1` [Example 104, 1-(5-(3-cyclopropyl-2-(2,6-dimethylpyridin-4-yl)-1H-indol-6-yl)pyridin-2-yl)piperidin-4-amine], the 50% effective concentration (EC50) at TLR7 came to 8.3 nM; on TLR9, 44.1 nM.

Consider `Cc1cc(-c2[nH]c3cc(-c4ccc(N5CC[C@@H](N)C5)nc4)ccc3c2C2CC2)cc(C)n1` [Example 105], for which the EC50 stood at 0.9 nM at TLR7 and 31.2 nM at TLR9.

For `Cc1cc(-c2[nH]c3cc(-c4ccc(N5CCN(C(=O)CN(C)C)CC5)nc4)ccc3c2C)cc(C)n1` [Example 106, 2-(dimethylamino)-1-(4-(5-(2-(2,6-dimethylpyridin-4-yl)-3-methyl-1H-indol-6-yl)pyridin-2-yl)piperazin-1-yl)ethan-1-one], the EC50 on TLR7 was 39.8 nM; on TLR9 it was 18.2 nM.

In the case of `CC(=O)N1CCN(c2ccc(-c3ccc4c(C)c(-c5cc(C)nc(C)c5)[nH]c4c3)cn2)CC1` [Example 107], the figures for the EC50 on TLR7 and at TLR9 were 224 nM and 717 nM, respectively.

For the compound `Cc1cc(-c2[nH]c3cc(-c4ccc(N5CCN(C(=O)[C@@H]6CCCN6C)CC5)nc4)ccc3c2C)cc(C)n1` [Example 108], the EC50 at TLR7 came to 44.5 nM; on TLR9, 32.1 nM.

For the compound `Cc1cc(-c2[nH]c3cc(-c4ccc(N5CCN(C(=O)[C@H]6CCCN6C)CC5)nc4)ccc3c2C)cc(C)n1` [Example 109], the EC50 on TLR7 turned out to be 15.3 nM; at TLR9, 35.5 nM.

With `Cc1cc(-c2[nH]c3cc(-c4ccc(N5CCN(C(=O)[C@@H]6COCCN6)CC5)nc4)ccc3c2C)cc(C)n1` [Example 110], the EC50 came to 32.2 nM at TLR7 and 63.6 nM at TLR9.
